Measured values taken from patent publication US10342796B2, “Acrylanilide derivative, preparation method, and applications thereof in pharmacy” (Ancureall Pharmaceutical (Shanghai) Co., Ltd., priority 2015, dated 2019).

Tests used:
Experiment in all cases: Growth inhibition GI50 in vitro (CCK8/MTT, 72 h)
Assay type in all cases: cell-based, human
[1] = system: HCC827 (EGFR dE746-A750); conditions: Homo sapiens, HCC827; EGFR mutant cell line; range of GI50; read-out: GI50 HCC827
[2] = system: PC-9 (EGFR dE746-A750); conditions: Homo sapiens; EGFR mutant cell line; range of GI50; read-out: GI50 PC-9
[3] = system: H1975 (EGFR L858R/T790M); conditions: Homo sapiens, NCI-H1975; EGFR mutant cell line; range of GI50; read-out: GI50 H1975
[4] = system: PC-9ER (EGFR delE746-A750/T790M); conditions: Homo sapiens, PC-9/ER; EGFR mutant cell line; range of GI50; read-out: GI50 PC9ER
[5] = system: AU565 (Her2 amp); conditions: Homo sapiens, AU565; HER2 positive cell line; range of GI50; read-out: GI50 AU-565
[6] = system: SK-BR-3 (Her2 amp); conditions: Homo sapiens, SK-BR-3; HER2 positive cell line; range of GI50; read-out: GI50 SK-BR-3
Procedure: Human lung adenocarcinoma cell line Calu-3 (ATCC) was cultured with 1×MEM complete medium (10% FBS, 1% double-antibiotics, 1% NEAA (Gibco), 2 mM glutamine and 1 mM of sodium pyruvate). Human breast cancer cell line SK-BR-3 was cultured with McCOY'S5A complete medium (10% FBS). Human colon cancer cell line SNU1040 (HER2 V777M positive) (ATCC) and human bronchoalveolar adenocarcinoma cell line NCI-H1781 (expressing HER2 exon 20 G776VC mutation) (ATCC) were cultured with 1×RPMI1640 complete medium (10% FBS), respectively.
The suspension cells were collected by centrifugation. The supernatant was discard and the cell pellet was resuspended and counted. Different cell concentrations (5˜10×10^4 cells/mL) were prepared according to the growth cycle of each cell line and then seeded on a 96-well plate (Corning), 100 μL/well. The cells were incubated over night at 37° C., 5% CO2. The compounds were added to the cells on the second day with 2 wells in parallel. The final concentration of organic solvent shall not exceed 1%. The cells were continually incubated for 72 h, and then subjected to MTT assay.
The present compounds and the reference compounds were dissolved with DMSO (Sigma), respectively. […] The storage concentration of compounds was 10 mM and kept at −20° C. They were diluted by 2 times or 10 times with serial dilution before using.
Dojindo CCK8 reagent kit was used as MTT assay. […] FC meter was used as microplate reader.
Adherent cell culture medium was discard and immediately replaced with fresh prepared medium which contains 10% CCK8 reagent (100 μL/well). For the suspension cells, CCK8 was directly added to 10% of the final concentration. The cells were continually incubated for 1˜4 h. When the color of control wells turned to dark yellow, the absorption value was measured at OD450 nm. The cell growth rate was calculated according to the following formula: cell growth rate (%)=100*(T−T0)/(C−T0), T=optical density of drug treatment cell well—optical density of blank control well; T0=optical density of cell well before drug treatment—optical density of blank control well; C=optical density of cell well of solvent control group—optical density of blank control well. […] The experiment was independently repeated 1˜3 times, and subject to biological statistical analysis.

[7] = system: H1299 (EGFR wt, Nras Q61K); conditions: Homo sapiens, NCI-H1299; EGFR wild type cell line; range of GI50; read-out: GI50 H1299
[8] = system: A431 (EGFR WT, amplification and high expression); conditions: Homo sapiens, A-431; EGFR wild type cell line; range of GI50; read-out: GI50 A431
[9] = system: A549 (EGFR WT); conditions: Homo sapiens, A549; EGFR wild type cell line; range of GI50; read-out: GI50 A549
[10] = system: H460 (EGFR wt, Kras G61H); conditions: Homo sapiens, NCI-H460; EGFR wild type cell line; range of GI50; read-out: GI50 H460
[11] = system: N87 (HER2 Amp); conditions: Homo sapiens; HER2 positive cell line; range of GI50; read-out: GI50 N87

GI50 [1] [nM]	GI50 [2] [nM]	GI50 [3] [nM]	GI50 [4] [nM]	GI50 [6] [nM]	GI50 [7] [nM]	GI50 [8] [nM]	GI50 [9] [nM]	GI50 [10] [nM]	Structure (SMILES)	GI50 [5] [nM]	GI50 [11] [nM]
10 to 100	100 to 1000	10 to 100	10 to 100	100 to 1000	> 1000	100 to 1000	> 1000	> 1000	C=CC(=O)Nc1cc(Nc2nccc(-n3cc(C)c4ccccc43)n2)c(OC)cc1N(C)CCN(C)C [Compound 57, N-(5-(4-(3-methyl-1H-indol-1-yl)-pyrimidin-2-ylamino)-2-(2-(dimethylamino-ethyl)-methyl-amino)-4-methoxyl-phenyl)-acrylamide]	100 to 1000	100 to 1000
10 to 100	10 to 100	10 to 100	10 to 100	100 to 1000	> 1000	100 to 1000	> 1000	> 1000	C=CC(=O)Nc1cc(Nc2nccc(-n3ccc4ccc(OC)cc43)n2)c(OC)cc1N(C)CCN(C)C [Compound 58]	100 to 1000	100 to 1000
10 to 100	10 to 100	10 to 100	10 to 100	100 to 1000	> 1000	100 to 1000	> 1000	> 1000	C=CC(=O)Nc1cc(Nc2nccc(-n3ccc4ccc(C)cc43)n2)c(OC)cc1N(C)CCN(C)C [Compound 59]	100 to 1000	100 to 1000
100 to 1000	100 to 1000	100 to 1000	100 to 1000	100 to 1000	> 1000	> 1000	> 1000	> 1000	C=CC(=O)Nc1cc(Nc2nccc(-n3ccc4ccc(C#N)cc43)n2)c(OC)cc1N(C)CCN(C)C [Compound 60, N-{5-[4-(6-cyano-indol-1-yl)-pyrimidin-2-ylamino]-2-[(2-dimethylamino-ethyl)-methyl-amino]-4-methoxyl-phenyl}-acrylamidel]	100 to 1000	100 to 1000
10 to 100	10 to 100	< 10	< 10	100 to 1000	> 1000	100 to 1000	> 1000	> 1000	C=CC(=O)Nc1cc(Nc2nccc(-n3ccc4ccc(Cl)cc43)n2)c(OC)cc1N(C)CCN(C)C [Compound 61, N-(5-(4-(6-chloro-1H-indol-1-yl)-pyrimidin-2-ylamino)-2-((2-(dimethylamino)ethyl)-methyl-amino)-4-methoxyl-phenyl)-acrylamide]	100 to 1000	100 to 1000
< 10	10 to 100	10 to 100	10 to 100	10 to 100	> 1000	100 to 1000	> 1000	> 1000	C=CC(=O)Nc1cc(Nc2nccc(-n3ccc4ccc(Br)cc43)n2)c(OC)cc1N(C)CCN(C)C [Compound 62, N-(5-(4-(6-bromo-1H-indol-1-yl)-pyrimidin-2-ylamino)-2-((2-(dimethylamino)ethyl)-methyl-amino)-4-methoxyl-phenyl)-acrylamide]	10 to 100	10 to 100
100 to 1000	100 to 1000	10 to 100	10 to 100	100 to 1000	> 1000	100 to 1000	> 1000	> 1000	C=CC(=O)Nc1cc(Nc2nccc(-n3ccc4cc(C)ccc43)n2)c(OC)cc1N(C)CCN(C)C [Compound 77, N-(5-(4-(5-methyl-1H-indol-1-yl)-pyrimidin-2-ylamino)-2-((2-dimethylamino-ethyl)-methyl-amino)-4-methoxyl-phenyl)-acrylamide]	100 to 1000	100 to 1000
10 to 100	10 to 100	< 10	10 to 100	10 to 100	> 1000	100 to 1000	> 1000	> 1000	C=CC(=O)Nc1cc(Nc2nccc(-n3ccc4cc(OC)ccc43)n2)c(OC)cc1N(C)CCN(C)C [Compound 78, N-(5-(4-(5-methoxyl-1H-indol-1-yl)-pyrimidin-2-ylamino)-2-((2-dimethylamino-ethyl)-methyl-amino)-4-methoxyl-phenyl)-acrylamide]	10 to 100	< 10
< 10	10 to 100	< 10	10 to 100	100 to 1000	> 1000	100 to 1000	> 1000	> 1000	C=CC(=O)Nc1cc(Nc2nccc(-n3ccc4cc(F)ccc43)n2)c(OC)cc1N(C)CCN(C)C [Compound 83]	100 to 1000	10 to 100
10 to 100	10 to 100	10 to 100	10 to 100	10 to 100	> 1000	100 to 1000	> 1000	> 1000	C=CC(=O)Nc1cc(Nc2nccc(-n3ccc4c(C)cccc43)n2)c(OC)cc1N(C)CCN(C)C [Compound 98, N-(5-(4-(4-methyl-1H-indol-1-yl)-pyrimidin-2-ylamino)-2-(2-(dimethylamino-ethyl)-methyl-amino)-4-methoxyl-phenyl)-acrylamide]	100 to 1000	10 to 100
10 to 100	10 to 100	10 to 100	10 to 100	100 to 1000	> 1000	100 to 1000	> 1000	> 1000	C=CC(=O)Nc1cc(Nc2nccc(-n3ccc4cc(F)c(F)cc43)n2)c(OC)cc1N(C)CCN(C)C [Compound 103, N-(5-(4-(5,6-difluoro-1H-indol-1-yl)-pyrimidin-2-ylamino)-2-(2-(dimethylamino-ethyl)-methyl-amino)-4-methoxyl-phenyl)-acrylamide]	100 to 1000	10 to 100
10 to 100	10 to 100	10 to 100	10 to 100	10 to 100	> 1000	> 1000	> 1000	> 1000	C=CC(=O)Nc1cc(Nc2nccc(-n3nnc4ccccc43)n2)c(OC)cc1N(C)CCN(C)C [Compound 107]	100 to 1000	10 to 100
< 10	< 10	10 to 100	< 10	10 to 100	> 1000	100 to 1000	> 1000	> 1000	C=CC(=O)Nc1cc(Nc2ncnc(Nc3cccc(Cl)c3)n2)c(OC)cc1N(C)CCN(C)C [Compound 108, N-(5-(4-(3-chloro-phenylamino)-[1,3,5]triazin-2-ylamino)-2-((2-dimethylamino-ethyl)-methyl-amino)-4-methoxyl-phenyl)-acrylamide]	10 to 100	< 10
